In a compilation of properties of binary mixtures (doi:10.1007/s10953-021-01067-6):

Assay: xn = mol fraction of the nth substance listed
Details: 101.3 kPa

CCCCCC[NH2+]CCN.O=S(=O)([N-]S(=O)(=O)C(F)(F)F)C(F)(F)F + O
Details	electrical conductivity [S/m]	viscosity [mPa·s]
303.15 K, x1 = 0.401	0.251	51.4
303.15 K, x1 = 0.4387	0.209	66.6
303.15 K, x1 = 0.5021	0.135	104
303.15 K, x1 = 0.5762	0.066	117
303.15 K, x1 = 0.6827	0.0619	168
303.15 K, x1 = 0.8153	0.0416	226
303.15 K, x1 = 0.8939	0.0284	260
308.15 K, x1 = 0.401	0.324	40.1
308.15 K, x1 = 0.4387	0.267	51
308.15 K, x1 = 0.5762	0.0972	86.6
308.15 K, x1 = 0.6827	0.085	131
308.15 K, x1 = 0.8153	0.0537	160
308.15 K, x1 = 0.8939	0.0432	179
313.15 K, x1 = 0.401	0.396	31.8
313.15 K, x1 = 0.4387	0.328	39.8
313.15 K, x1 = 0.5021	0.221	59.1
313.15 K, x1 = 0.5762	0.138	65.5
313.15 K, x1 = 0.6827	0.11	97.4
313.15 K, x1 = 0.8153	0.0733	118
313.15 K, x1 = 0.8939	0.056	131
318.15 K, x1 = 0.401	0.485	25.7
318.15 K, x1 = 0.4387	0.409	31.6
318.15 K, x1 = 0.5021	0.278	45.9
318.15 K, x1 = 0.6827	0.144	74.1
318.15 K, x1 = 0.8153	0.0987	88.2
318.15 K, x1 = 0.8939	0.075	95.9
323.15 K, x1 = 0.4387	0.502	25.6
323.15 K, x1 = 0.5021	0.34	36.3
323.15 K, x1 = 0.5762	0.232	39.6
323.15 K, x1 = 0.6827	0.184	57.4
323.15 K, x1 = 0.8153	0.13	65.4
323.15 K, x1 = 0.8939	0.101	72.1
328.15 K, x1 = 0.401	0.71	17.7
328.15 K, x1 = 0.4387	0.603	20.9
328.15 K, x1 = 0.5762	0.288	31.6
328.15 K, x1 = 0.8153	0.166	50.6
328.15 K, x1 = 0.8939	0.13	55.6
333.15 K, x1 = 0.401	0.838	15
333.15 K, x1 = 0.4387	0.727	17.4
333.15 K, x1 = 0.5021	0.505	23.8
333.15 K, x1 = 0.5762	0.372	25.7
333.15 K, x1 = 0.6827	0.293	35.8
333.15 K, x1 = 0.8153	0.21	39.8
333.15 K, x1 = 0.8939	0.169	43.6
338.15 K, x1 = 0.401	0.973	12.8
338.15 K, x1 = 0.4387	0.858	14.7
338.15 K, x1 = 0.5762	0.441	21.2
338.15 K, x1 = 0.6827	0.359	29.2
338.15 K, x1 = 0.8153	0.263	31.8
338.15 K, x1 = 0.8939	0.203	36.5
343.15 K, x1 = 0.401	1.13	11.1
343.15 K, x1 = 0.4387	1.01	11.9
343.15 K, x1 = 0.5021	0.705	16.5
343.15 K, x1 = 0.5762	0.521	17.7
343.15 K, x1 = 0.8939	0.255	28.2
348.15 K, x1 = 0.4387	1.12	10.3
348.15 K, x1 = 0.5021	0.808	14
348.15 K, x1 = 0.6827	0.503	20.5
348.15 K, x1 = 0.8153	0.399	21.4
348.15 K, x1 = 0.8939	0.31	24.4
353.15 K, x1 = 0.401	1.47	8.8
353.15 K, x1 = 0.4387	1.34	9
353.15 K, x1 = 0.5021	0.908	12
353.15 K, x1 = 0.6827	0.601	16.9
353.15 K, x1 = 0.8153	0.37	17
353.15 K, x1 = 0.8939	–	20.7
